We go through eight compounds from PubChem BioAssay (NCI).

Test systems include T-47D breast; SW-620 colon; HCC-2998 colon; NCI-H23 lung; BT-549 breast; SK-MEL-2 melanoma; SNB-75 CNS; HCT-15 colon; HT29 colon; A549 NSCLC; DU-145 prostate; 786-0 renal; HOP-92 NSCLC; NCI-H522 lung; CAKI-1 renal; SF-268 CNS; SK-MEL-5 melanoma; TK-10 renal; IGROV1 ovarian; HS 578T breast.
What all share (assay): NCI anticancer screen, dose series, 48 h

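How tested: cells in 96-well plates exposed to compound for 48 hours at five concentrations. TGI is the concentration that stops growth completely.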 Some results are limits rather than exact numbers.

`O=c1[nH]nc(Cc2ccc(Cl)cc2)n1/N=C/c1ccco1`: the TGI with T-47D breast, in the assay with SW-620 colon, in the assay on HCC-2998 colon, in the assay on NCI-H23 lung, in the assay on BT-549 breast and in the assay on SK-MEL-2 melanoma was greater than 100 µM in each case. The TGI in the assay on SNB-75 CNS was 49.7 µM; in the assay with HCT-15 colon, greater than 100 µM; with HT29 colon it was greater than 100 µM; in the assay with A549 NSCLC it was greater than 100 µM; in the assay on DU-145 prostate, greater than 100 µM; in the assay with 786-0 renal, greater than 100 µM. Moreover, the TGI in the assay with HOP-92 NSCLC, with NCI-H522 lung, with CAKI-1 renal and in the assay on SF-268 CNS was greater than 100 µM throughout.

Regarding `Clc1ccc(Nc2nnc(CCCCCCCCc3nnc(Nc4ccc(Cl)cc4)o3)o2)cc1`, the TGI in the assay with SW-620 colon is greater than 100 µM; in the assay with HCC-2998 colon it was greater than 100 µM; with NCI-H23 lung it was 90.6 µM; with BT-549 breast it was greater than 100 µM; in the assay on SK-MEL-2 melanoma, greater than 100 µM; in the assay with SNB-75 CNS it was greater than 100 µM. For the same compound, the TGI in the assay on HCT-15 colon was greater than 100 µM; with HT29 colon it was greater than 100 µM; with A549 NSCLC it was 89.8 µM; with SK-MEL-5 melanoma, 64.2 µM; in the assay on DU-145 prostate, greater than 100 µM; with 786-0 renal it was 60.1 µM. For the same compound, the TGI with HOP-92 NSCLC was 98.7 µM; in the assay with NCI-H522 lung, 73.1 µM; in the assay with CAKI-1 renal, greater than 100 µM; in the assay with TK-10 renal, greater than 100 µM; in the assay with IGROV1 ovarian it was greater than 100 µM.

For the compound `CC(C)(C)n1c(=O)n2n(c1=O)Cc1cccc3cccc(c13)C2`, the TGI is 35.9 µM in the assay on SW-620 colon; 45.6 µM in the assay with HCC-2998 colon; greater than 100 µM with NCI-H23 lung; 95.3 µM in the assay with BT-549 breast; 38.2 µM with SK-MEL-2 melanoma; 66.4 µM in the assay with SNB-75 CNS. For the same compound, the TGI with HCT-15 colon was 39.5 µM; in the assay with HT29 colon, 39.7 µM; with A549 NSCLC, greater than 100 µM; in the assay with SK-MEL-5 melanoma, greater than 100 µM; with DU-145 prostate, greater than 100 µM; with 786-0 renal, 45.1 µM. For the same compound, the TGI in the assay on HOP-92 NSCLC was 69.2 µM; in the assay on NCI-H522 lung, 13.6 µM; in the assay on CAKI-1 renal, 36.9 µM; with HS 578T breast it was 61.1 µM; in the assay on SF-268 CNS, 49.1 µM; in the assay with TK-10 renal, greater than 100 µM. Moreover, the TGI with IGROV1 ovarian was determined as 38.5 µM.

`Oc1cc(O)c2ccc(-c3ccc(O)c(O)c3)[o+]c2c1`: the TGI in the assay on SW-620 colon, in the assay with HCC-2998 colon, in the assay on NCI-H23 lung, in the assay on BT-549 breast, with SK-MEL-2 melanoma and with SNB-75 CNS was greater than 100 µM in each case. Also, the TGI in the assay with HCT-15 colon, with HT29 colon, in the assay on A549 NSCLC, in the assay with 786-0 renal, with HOP-92 NSCLC and in the assay with NCI-H522 lung was greater than 100 µM throughout. Also, the TGI in the assay on CAKI-1 renal, in the assay on HS 578T breast, in the assay on SF-268 CNS, with TK-10 renal and in the assay with IGROV1 ovarian was greater than 100 µM in each case.

Regarding `CC(=O)N(C)c1ccc(N=CN(C)C)cc1`, the TGI with T-47D breast, in the assay on NCI-H23 lung, in the assay with BT-549 breast, in the assay on SK-MEL-2 melanoma, in the assay on SNB-75 CNS and in the assay on HCT-15 colon was greater than 100 µM in each case. In addition, the TGI in the assay with HT29 colon, in the assay on A549 NSCLC, in the assay on SK-MEL-5 melanoma, with DU-145 prostate, in the assay with 786-0 renal and in the assay with HOP-92 NSCLC was greater than 100 µM throughout. The TGI in the assay with NCI-H522 lung, in the assay on CAKI-1 renal, in the assay on SF-268 CNS, with TK-10 renal and with IGROV1 ovarian was greater than 100 µM in each case.

With `CCOc1ccc(N/C(=C(/C(Cl)=C(/Cl)Nc2ccccc2)[N+](=O)[O-])n2nnc3ccccc32)cc1`, the TGI is greater than 100 µM in the assay with T-47D breast; greater than 100 µM in the assay on HCC-2998 colon; 32.6 µM with NCI-H23 lung; 28.7 µM in the assay with BT-549 breast; 73.7 µM in the assay on SK-MEL-2 melanoma; greater than 100 µM in the assay with SNB-75 CNS. Also, the TGI is 28 µM in the assay on HCT-15 colon; greater than 100 µM with A549 NSCLC; 37 µM in the assay on SK-MEL-5 melanoma; greater than 100 µM with DU-145 prostate; 62.3 µM in the assay on 786-0 renal; 40.6 µM with HOP-92 NSCLC. Also, the TGI was 39.5 µM in the assay on NCI-H522 lung, 60.4 µM with CAKI-1 renal, 53.4 µM in the assay on SF-268 CNS and greater than 100 µM in the assay on TK-10 renal.

Turning to `CC(=O)C1C(=O)C(=O)N(c2ccccc2)C1=O` (stereo not drawn), the TGI in the assay on SW-620 colon, in the assay with HCC-2998 colon, in the assay on NCI-H23 lung, with BT-549 breast, in the assay with SK-MEL-2 melanoma and with SNB-75 CNS was greater than 100 µM throughout. Further, the TGI in the assay on HCT-15 colon, with HT29 colon, in the assay with A549 NSCLC, with SK-MEL-5 melanoma, with DU-145 prostate and with 786-0 renal was greater than 100 µM in each case. In addition, the TGI in the assay on HOP-92 NSCLC, in the assay with NCI-H522 lung, with CAKI-1 renal, in the assay on HS 578T breast, in the assay with SF-268 CNS and in the assay on TK-10 renal was greater than 100 µM throughout. Also, the TGI in the assay on IGROV1 ovarian is greater than 100 µM.

Regarding `CC1=NN(C(=O)c2ccccc2O)C(=O)/C1=C/c1cccc(O)c1`, the TGI is greater than 100 µM in the assay with T-47D breast; greater than 100 µM in the assay on SW-620 colon; greater than 100 µM in the assay with HCC-2998 colon; greater than 100 µM in the assay with BT-549 breast; greater than 48.4 µM with SK-MEL-2 melanoma; greater than 100 µM with SNB-75 CNS. Moreover, the TGI in the assay with HCT-15 colon, in the assay on HT29 colon, in the assay with A549 NSCLC, in the assay with SK-MEL-5 melanoma, in the assay with DU-145 prostate and with 786-0 renal was greater than 100 µM in each case. The TGI with HOP-92 NSCLC is greater than 100 µM; in the assay on NCI-H522 lung, greater than 30.7 µM; with CAKI-1 renal, greater than 100 µM; in the assay on SF-268 CNS, greater than 100 µM; in the assay with TK-10 renal it was greater than 100 µM.
